Laboratory results from ChEMBL document CHEMBL2331126, “Alkyl esters of gallic acid as anticancer agents: a review” (Eur J Med Chem, 2013).
≈ marks a conversion by molar mass, not a printed value.

What was measured:
[1] = Cytotoxicity against mouse WEHI231 cells; type: functional, cell-based
CCRF-CEM = test: Cytotoxicity against human CEM cells; type: cell-based
HL-60 = test: Cytotoxicity against human HL60 cells; type: functional, cell-based
B16-F10 = test: Cytotoxicity against mouse B16F10 cells; type: functional, cell-based
L1210 = test: Cytotoxicity against mouse L1210 cells; type: functional, cell-based
L929 = test: Cytotoxicity against mouse L929 cells; type: functional, cell-based
MDA-MB-231 = test: Cytotoxicity against human MDA-MB-231 cells; type: functional, cell-based
[2] = Cytotoxicity against rat fibroblast cells; type: cell-based
P388-D1 (Mus musculus) = test: Cytotoxicity against mouse P388D1 cells
[3] = Antimigratory activity against human U87 cells at 40 ug/ml after 8 hrs by wound closure assay; type: functional, U-87MG ATCC
Calu-6 = test: Cytotoxicity against human Calu6 cells; type: functional, cell-based
[4] = biological target: Disintegrin and metalloproteinase domain-containing protein 17 (Homo sapiens) (UniProt P78536); test: Inhibition of ADAM17 alpha-secretase activity in human […] cells using amyloid beta precursor protein as substrate at 30 ug/ml after 24 hrs by fluorimetric analysis; type: cell-based
[5] = Cytotoxicity against human HL60RG cells; type: functional, cell-based
K562 [6] = test: Cytotoxicity against human imatinib-resistant K562 cells; type: functional, cell-based
A549 = test: Cytotoxicity against human A549 cells; type: functional, cell-based
[7] = biological target: Disintegrin and metalloproteinase domain-containing protein 17 (Homo sapiens) (UniProt P78536); test: Inhibition of ADAM17 alpha-secretase activity in human […] cells using amyloid beta precursor protein as substrate at 20 ug/ml after 24 hrs by fluorimetric analysis; type: cell-based
K562 [8] = test: Cytotoxicity against human K562 cells; type: functional, cell-based
[9] = Cytotoxicity against rat endothelial cells; conditions: Endothelial cell
U-251 [10] = test: Antimigratory activity against human U251 cells at 30 ug/ml after 8 hrs by wound closure assay; type: functional
[11] = biological target: Disintegrin and metalloproteinase domain-containing protein 17 (Homo sapiens) (UniProt P78536); test: Inhibition of ADAM17 alpha-secretase activity in human […] cells using amyloid beta precursor protein as substrate at 40 ug/ml after 24 hrs by fluorimetric analysis; type: cell-based
U-251 [12] = test: Antimigratory activity against human U251 cells at 40 ug/ml after 8 hrs by wound closure assay; type: functional
KB = test: Cytotoxicity against human KB cells; type: functional, cell-based
HeLa = test: Cytotoxicity against human HeLa cells; type: functional, cell-based
[13] = Cytotoxicity against human PLC/PRF/5 cells; type: functional, cell-based
[14] = Cytotoxicity against rat dRLh-84 cells; type: functional, cell-based
[15] = Antimigratory activity against human U87 cells at 30 ug/ml after 8 hrs by wound closure assay; type: functional, U-87MG ATCC

Disintegrin and metalloproteinase domain-containing protein 17 (Homo sapiens), sequence (P78536 whole entry, the tested form may be a part): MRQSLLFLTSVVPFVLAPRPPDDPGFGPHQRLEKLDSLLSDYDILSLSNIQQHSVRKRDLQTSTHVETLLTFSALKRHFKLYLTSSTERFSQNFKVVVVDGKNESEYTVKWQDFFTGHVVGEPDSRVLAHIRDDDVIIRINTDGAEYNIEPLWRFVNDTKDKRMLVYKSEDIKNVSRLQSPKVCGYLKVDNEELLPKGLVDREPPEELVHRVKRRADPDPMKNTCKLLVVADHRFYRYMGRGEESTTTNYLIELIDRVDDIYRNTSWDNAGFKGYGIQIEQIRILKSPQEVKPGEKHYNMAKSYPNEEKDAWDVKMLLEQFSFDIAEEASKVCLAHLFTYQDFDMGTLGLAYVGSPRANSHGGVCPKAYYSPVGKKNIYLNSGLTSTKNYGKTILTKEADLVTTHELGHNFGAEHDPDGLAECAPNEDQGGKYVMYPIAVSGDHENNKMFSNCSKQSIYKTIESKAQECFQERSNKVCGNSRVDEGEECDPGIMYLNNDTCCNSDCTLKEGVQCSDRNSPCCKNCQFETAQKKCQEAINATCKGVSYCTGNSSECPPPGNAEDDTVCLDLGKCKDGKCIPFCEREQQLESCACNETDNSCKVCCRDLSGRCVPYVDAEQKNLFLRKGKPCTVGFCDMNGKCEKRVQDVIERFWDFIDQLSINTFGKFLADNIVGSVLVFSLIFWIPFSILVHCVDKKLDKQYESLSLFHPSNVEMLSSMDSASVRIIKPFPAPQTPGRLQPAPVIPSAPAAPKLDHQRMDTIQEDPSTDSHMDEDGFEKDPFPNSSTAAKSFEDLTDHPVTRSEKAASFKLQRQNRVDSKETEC

Q: Which results are given for `CCCCCCCCCCCCOC(=O)c1cc(O)c(O)c(O)c1` [DODECYL GALLATE]?
A: IC50 [1]: 1 µM; IC50 (CCRF-CEM): 47.4 µM; IC50 (HL-60): 33 µM; IC50 (B16-F10): 48 µM; IC50 (L1210): 10.9 µM; IC50 (L929): 1 µM; IC50 (MDA-MB-231): 1 µM

Q: What does the source list for `CCCCCCCCOC(=O)c1cc(O)c(O)c(O)c1` [OCTYL_GALLATE]?
A: IC50 [1]: 1.5 µM; IC50 (CCRF-CEM): 50 µM; IC50 (B16-F10): 45 µM; IC50 (L1210): 22 µM; IC50 (L929): 1 µM

Q: Which IC50 [2] does the source give for `O=C(O)c1cc(O)c(O)c(O)c1` [GALLIC ACID] here?
A: > 20 µg/mL

Q: And the IC50 (P388-D1 (Mus musculus))?
A: 282 µM

Q: What about the Activity [3] of the same molecule?
A: 30%

Q: What about the IC50 (Calu-6) of the same molecule?
A: 10 µM

Q: And the IC50 [1]?
A: 40 µM

Q: And the inhibition [4]?
A: 43.5%

Q: And the IC50 [5]?
A: 317 µM

Q: What about the IC50 (K562 [6]) of the same molecule?
A: 4.75 µM

Q: What about the IC50 (HL-60) of the same molecule?
A: 300 µM

Q: And the IC50 (A549)?
A: 100 µM

Q: What about the inhibition [7] of the same molecule?
A: 47.9%

Q: What about the IC50 (K562 [8]) of the same molecule?
A: 33 µM

Q: And the IC50 [9]?
A: > 20 µg/mL

Q: What about the Activity (U-251 [10]) of the same molecule?
A: 51%

Q: What about the inhibition [11] of the same molecule?
A: 38.9%

Q: And the Activity (U-251 [12])?
A: 31%

Q: And the IC50 (KB)?
A: 13.2 µg/mL (≈ 77.6 µM)

Q: What about the IC50 (L929) of the same molecule?
A: 250 µM

Q: And the IC50 (HeLa)?
A: 358 µM

Q: And the IC50 [13]?
A: 387 µM

Q: And the IC50 [14]?
A: 364 µM

Q: What about the Activity [15] of the same molecule?
A: 29%

Q: For `CCCCCCCCCCCCCCOC(=O)c1cc(O)c(O)c(O)c1` [TETRADECYL GALLATE], which IC50 (CCRF-CEM) is on record?
A: > 50 µM

Q: And the IC50 (B16-F10)?
A: 60 µM

Q: What about the IC50 (L1210) of the same molecule?
A: 8.5 µM

Q: Which IC50 [1] does the source give for `CCCOC(=O)c1cc(O)c(O)c(O)c1` [PROPYL GALLATE] here?
A: 12 µM

Q: What about the IC50 (L929) of the same molecule?
A: 40 µM

Q: And the IC50 (HeLa)?
A: 800 µM

Q: For `CCCCCCCCCCOC(=O)c1cc(O)c(O)c(O)c1` [DECYL GALLATE], which IC50 (CCRF-CEM) is on record?
A: 9.8 µM

Q: What about the IC50 (B16-F10) of the same molecule?
A: 82 µM

Q: What about the IC50 (L1210) of the same molecule?
A: 12.2 µM
